Data from patent publication US11660306B2, “Treatment of Rett syndrome” (Cold Spring Harbor Laboratory, priority 2014, dated 2023).
pKi: −log10 of the molar value.

Assays:
[1] = tested on: PTP1B; experiment: Reversibility of PTP1B inhibition by triterpenes (Table 2); type: biochemical
[2] = target: PTP1B405 (Homo sapiens, UniProt P18031); experiment: Triterpene inhibition of PTP1B405 (Table 2); type: biochemical
[3] = target: PTP1B321 (Homo sapiens, UniProt P18031); experiment: Triterpene inhibition of PTP1B321 (Table 2); type: biochemical
[4] = tested on: Mecp2 mutant mice; experiment: Anti-diabetic small molecules in Mecp2 mutant mice (FIG. 6D)
[5] = tested on: Mecp2−/y mice; experiment: Survival of Mecp2-null male mice; settings: for survival (in words): Mecp2-null male mice, 5 mg/kg
[6] = target: PTP1B (Homo sapiens (Human), UniProt P18031); experiment: PTP1B phosphatase inhibition; type: biochemical
PTP1B (Homo sapiens (Human), UniProt P18031), sequence (P18031 whole entry, the tested form may be a part): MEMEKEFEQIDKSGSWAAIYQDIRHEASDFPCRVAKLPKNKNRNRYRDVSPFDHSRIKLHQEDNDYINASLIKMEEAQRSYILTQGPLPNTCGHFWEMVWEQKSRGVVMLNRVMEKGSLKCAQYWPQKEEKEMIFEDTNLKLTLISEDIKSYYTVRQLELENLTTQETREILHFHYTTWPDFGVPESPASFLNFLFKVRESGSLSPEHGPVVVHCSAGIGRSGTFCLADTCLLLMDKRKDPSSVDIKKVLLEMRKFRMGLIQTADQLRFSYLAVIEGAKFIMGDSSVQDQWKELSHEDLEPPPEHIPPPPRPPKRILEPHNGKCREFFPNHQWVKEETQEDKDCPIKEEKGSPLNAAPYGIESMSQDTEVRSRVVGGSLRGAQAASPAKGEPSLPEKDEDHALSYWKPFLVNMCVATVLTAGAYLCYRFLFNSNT
Protocol: (§1) In this example, in order to determine the significance of the elevated PTP1B levels in animal models of Rett syndrome, the effects of small molecule inhibitors of the phosphatase were tested. Using para-Nitro Phenyl Phosphate (pNPP) as substrate, PTP1B inhibition by CPT157633 was studied (FIG. 13A). […] To obtain structural insights into the PTP1B-CPT157633 interaction, both biomolecular NMR spectroscopy and X-ray crystallography were used. Residues 1-301 from the catalytic domain of PTP1B were expressed in D2O-based medium and 2D [^1H,^15N] TROSY spectra were recorded in the absence and presence of CPT157633. […] This was confirmed by the crystal structure of the PTP1B:CTP157633 complex, which illustrated a non-covalent interaction. Electrostatic interactions made by the compound to critical active site residues are highlighted in FIG. 13G.
(§2) A second inhibitor of PTP1B that exerts its effect on the enzyme by a different mechanism was characterized. […] It inhibited PTP1B with selectivity compared to a panel of eight phosphatases investigated.

[7] = tested on: panel of six PTPs and two dual-specificity phosphatases; experiment: Specificity against a panel of phosphatases; type: biochemical
Protocol: as §1, §2

[8] = tested on: Mecp2−/y mice; experiment: Glucose tolerance test in Mecp2−/y male mice; settings: 5 mg/Kg, two weeks after treatment

Row | SMILES | Ki [2] | Ki [3] | Reversibility [1] | also measured
1 | CC1(C)[C@@H](O)CC[C@]2(C)[C@H]3C(=O)C=C4[C@@H]5C[C@@](C)(C(=O)O)CC[C@]5(C)CC[C@@]4(C)[C@]3(C)CC[C@@H]12 |  |  | Reversible | 
2 | CC1=C(O)C(=O)C=C2C1=CC=C1[C@@]2(C)CC[C@@]2(C)[C@@H]3C[C@](C)(C(=O)O)CC[C@]3(C)CC[C@]12C | 10 µM | 10 µM | Irreversible | 
3 | COC(=O)[C@]1(C)CC[C@]2(C)CC[C@]3(C)C4=CC=C5C(=CC(=O)C(O)=C5C)[C@]4(C)CC[C@@]3(C)[C@@H]2C1 | 8 µM | 10 µM | Irreversible | 
4 | CC1(C)CC[C@]2(C(=O)O)CC[C@]3(C)C(=CCC4[C@@]5(C)C[C@@H](O)[C@H](O)C(C)(C)[C@@H]5CC[C@]43C)[C@@H]2C1 (stereo partly drawn) | 5.7 µM | 10 µM | Reversible | 
5 | C=C(C)[C@@H]1CC[C@]2(CO)CC[C@]3(C)[C@H](CC[C@@H]4[C@@]5(C)CC[C@H](O)C(C)(C)[C@@H]5CC[C@]43C)[C@@H]12 | 2 µM | 3 µM | Reversible | 
6 | C[C@H]1[C@H](C)CC[C@]2(CO)CC[C@]3(C)C(=CC[C@@H]4[C@@]5(C)CC[C@H](O)C(C)(C)[C@@H]5CC[C@]43C)[C@H]12 |  |  | Reversible | 
7 | C[C@H]1[C@H](C)CC[C@]2(C(=O)O)CC[C@]3(C)C(=CC[C@@H]4[C@@]5(C)CC[C@H](O)C(C)(C)C5CC[C@]43C)[C@H]12 (stereo partly drawn) |  |  | Reversible | 
8 | C=C(C)C1CC[C@]2(C(=O)O)CC[C@]3(C)[C@H](CC[C@@H]4[C@@]5(C)CC[C@H](O)C(C)(C)[C@@H]5CC[C@]43C)[C@@H]12 (stereo partly drawn) | 0.7 µM | 3 µM | Irreversible | 
9 | CC1(C)CC[C@]2(C(=O)O)CC[C@]3(C)C(=CC[C@@H]4[C@@]5(C)CC[C@H](O)C(C)(C)[C@@H]5CC[C@]43C)[C@@H]2C1 |  |  | Reversible | 
10 | CC(C)[C@H]1CC[C@]2(C)[C@H]3CC[C@@H]4[C@@]5(C)CCCC(C)(C)[C@@H]5CC[C@@]4(C)[C@]3(C)CC[C@@H]12 | 5.7 µM | 9 µM | Reversible | 
11 | CC1(C)CCC[C@](C)([C@H]2CC[C@]3(C)[C@@H]2[C@H](O)C[C@@H]2[C@@]4(C)CC[C@H](O)C(C)(C)[C@@H]4[C@H](O)C[C@]23C)O1 | 10 µM | 14 µM | Reversible | 
12 | NC(=O)c1ncn([C@@H]2O[C@H](CO)[C@@H](O)[C@H]2O)c1N [AICAR] |  |  |  | effectiveness compared with PTP1B inhibitors [4]: none of the three inhibitors were as effective as PTP1B inhibitors
13 | C[C@@H]1CC[C@]2(C(=O)O)CC[C@]3(C)C(=CCC4[C@@]5(C)CC[C@H](O)C(C)(C)C5CC[C@]43C)C2[C@H]1C (stereo partly drawn) [UA001, ursolic acid, reference compound] |  |  |  | survival (in words) [5]: improved the survival
14 | C[C@@H]1CC[C@]2(C(=O)NCCCCCCCCCCC(=O)N[C@@H](Cc3ccccc3)C(=O)O)CC[C@]3(C)C(=CCC4[C@@]5(C)CC[C@H](O)C(C)(C)C5CC[C@]43C)C2[C@H]1C (stereo partly drawn) [UA0713] |  |  |  | mode of inhibition of PTP1B [6]: non-competitive; pKi ([6]; substrate not stated): 6.82; effect against phosphatase panel compared to PTP1B [7]: selectivity; survival (in words) [5]: improved the survival; increase in survival ([5]; Mecp2−/y male mice, 5 mg/Kg, versus saline): 2 fold; median life-span ([5]; Mecp2−/y male mice, 5 mg/Kg, saline 40 days): 95 days; glucose intolerance [8]: markedly reduced
15 | CN(C)C(=N)N=C(N)N [metformin] |  |  |  | effectiveness compared with PTP1B inhibitors [4]: none of the three inhibitors were as effective as PTP1B inhibitors
16 | CN(CCOc1ccc(CC2SC(=O)NC2=O)cc1)c1ccccn1 (stereo not drawn) [rosiglitazone] |  |  |  | effectiveness compared with PTP1B inhibitors [4]: none of the three inhibitors were as effective as PTP1B inhibitors

More lines, main results first:

Row | Ki [2] | Ki [3] | SMILES | Reversibility [1] | also measured
17 | 7 µM | 8.3 µM | CC1(C)CC[C@]2(C(=O)O)CC[C@]3(C)C(=CC[C@@H]4[C@@]5(C)C[C@@H](O)[C@H](O)[C@@](C)(CO)[C@@H]5CC[C@]43C)[C@@H]2C1 | Reversible | 
18 | 2 µM | 3.6 µM | CC1(C)CC[C@]2(C(=O)O)CC[C@]3(C)C(=CC[C@@H]4[C@@]5(C)CC[C@H](O)[C@@](C)(CO)[C@@H]5CC[C@]43C)[C@@H]2C1 | Reversible | 
19 | 1.5 µM | 2.5 µM | C=C(C)[C@@H]1CC[C@]2(C)CC[C@]3(C)[C@H](CC[C@@H]4[C@@]5(C)CC[C@H](O)C(C)(C)[C@@H]5CC[C@]43C)[C@@H]12 | Reversible | 
20 | 1.5 µM | 3 µM | C[C@H]1[C@H](C)CC[C@]2(C(=O)O)CC[C@]3(C)C(=CC[C@@H]4[C@@]5(C)C[C@@H](O)[C@H](O)C(C)(C)[C@@H]5CC[C@]43C)[C@H]12 | Irreversible | 
21 | 4 µM | 6 µM | CC1(C)CC[C@]2(C)CC[C@]3(C)C(=CC[C@@H]4[C@@]5(C)CC[C@@H](O)[C@](C)(C(=O)O)[C@@H]5CC[C@]43C)[C@@H]2C1 | Reversible | 
22 | 2 µM | 4 µM | C[C@H]1C(=O)CC[C@H]2[C@]1(C)CC[C@]13C[C@@]14CC[C@@]1(C)CCC(C)(C)C[C@]15C[C@]54CC[C@@]23C | Reversible | 
23 | 15 µM | 15 µM | COC[C@]12CC[C@@H](C)[C@H](C)[C@H]1[C@@]1(O)C=C[C@@H]3[C@@]4(C)CCC(=O)C(C)(C)[C@@H]4CC[C@@]3(C)[C@]1(C)CC2 | Reversible | 
24 | 11 µM | 13 µM | CC1CCC23CCC4(C)C5(C)CCC6C(C)(C)C(=O)CCC6(C)C5C=CC4(OC2)C3C1C (stereo not drawn) | Reversible | 
25 | 5 µM | 7 µM | CC1(C)C=C2[C@H]3CC[C@@H]4[C@@]5(C)CCC(=O)C(C)(C)[C@@H]5CC[C@@]4(C)[C@]3(C)CC[C@@]2(C(=O)O)CC1 | Reversible | 
26 | 4 µM | 6 µM | C[C@H]1[C@H](C)CC[C@]2(C)CC[C@]3(C)C(=CC[C@@H]4[C@@]5(C)CC[C@H](O)C(C)(C)[C@@H]5CC[C@]43C)[C@H]12 | Irreversible | 
27 | 4.4 µM | 7 µM | C=C(C)[C@@H]1CC[C@]2(C(=O)O)CC[C@]3(C)[C@H](CC[C@@H]4[C@@]5(C)CC[C@H](OC(=O)CC(C)(C)C(=O)O)C(C)(C)[C@@H]5CC[C@]43C)[C@@H]12 | Irreversible | 
28 | 9 µM | 15 µM | CC1(C)CC[C@]2(C)CC[C@]3(C)[C@H](CC[C@@H]4[C@@]5(C)CCCC(C)(C)[C@@H]5CC[C@]43C)[C@@H]2C1 | Reversible | 
29 | 5 µM | 7 µM | CC1(C)[C@@H](OC(=O)CCC(=O)O)CC[C@]2(C)[C@H]3C(=O)C=C4[C@@H]5C[C@@](C)(C(=O)O)CC[C@]5(C)CC[C@@]4(C)[C@]3(C)CC[C@@H]12 | Reversible | 
30 | 5 µM | 8 µM | CC1(C)CC[C@]2(C)CC=C3C(C)(CC[C@@H]4[C@@]5(C)CC[C@H](O)C(C)(C)[C@@H]5CC[C@@]34C)[C@@H]2C1 (stereo partly drawn) | Reversible | 
31 | 22 µM | 18 µM | CC/C=C/C(C)(O)OCC1(C)C(=O)CCC2(C)C1CCC1(C)C2CCC2C3C(C)C(C)CCC3(C)CCC21C (stereo not drawn) | Reversible | 
32 | 25 µM | 36 µM | C[C@H]1CC[C@@]2(OC1)O[C@H]1C[C@H]3[C@@H]4CC=C5C[C@@H](O)CC[C@]5(C)[C@H]4CC[C@]3(C)[C@H]1[C@@H]2C | Reversible | 
